From PMC4445529, “Small molecule inhibition of group I p21-activated kinases in breast cancer induces apoptosis and potentiates the activity of microtubule stabilizing agents” (Breast Cancer Research : BCR, 2015)

Molecular target: T1, PAK4 (Homo sapiens, UniProt O96013)
T1 construct: kinase domain
Experiment: Z'-LYTE FRET peptide kinase assay with recombinant enzyme
Format: biochemical

T1 sequence (O96013 291-591 limits assumed): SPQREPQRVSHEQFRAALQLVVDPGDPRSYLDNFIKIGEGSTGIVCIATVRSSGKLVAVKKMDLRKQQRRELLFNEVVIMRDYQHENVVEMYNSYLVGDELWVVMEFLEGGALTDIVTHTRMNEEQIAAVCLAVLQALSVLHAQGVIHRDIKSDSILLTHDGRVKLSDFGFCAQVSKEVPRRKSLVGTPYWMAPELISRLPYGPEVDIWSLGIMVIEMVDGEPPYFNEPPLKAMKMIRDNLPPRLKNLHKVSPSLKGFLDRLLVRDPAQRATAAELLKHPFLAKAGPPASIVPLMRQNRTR

- Ki: 2400 nM
SMILES: CCn1c(=O)c(-c2ccc(-c3cncc(C)n3)cc2Cl)cc2cnc(NCCC3CCN(C)CC3)nc21 [FRAX1036]
